# Assay results reported in publication PMC3561256, “Anti-infectious and anti-inflammatory effects of peptide fragments sequentially derived from the antimicrobial peptide centrocin 1 isolated from the green sea urchin, Strongylocentrotus droebachiensis” (AMB Express, 2012).
# Values joined by “and” are separate entries in the source; they are usually repeats but may differ in a detail not shown here. Equal values may be shown once. No end group written: not given here.
# Columns and labels:
# S. aureus (ATCC 12600) = assay: Minimal microbicidal concentration (MMC99) assay; format: cell-based, Staphylococcus aureus
# Method: (§1) All the synthesised peptides were tested for their in vitro microbicidal activity against S. aureus (American Type Culture Collection (ATCC) 12600) and P. aeruginosa (ATCC 15442) using a minimal microbicidal concentration (MMC) assay as previously described (Haversen et al. [2010]). Bacteria were cultured in 3.7% brain heart infusion (BHI) broth (Difco, BD Diagnostics, Franklin Lakes, NJ) on a shaker at 250 rpm overnight at 37°C. The culture was diluted 1:10 in fresh 3.7% BHI and incubated for two additional hours to reach log-phase growth. The bacteria were pelleted by centrifugation at 900 × g and suspended in 0.037% BHI to a concentration of 10^7 CFU/mL, estimated by measuring optical density at 600 nm (OD600). To investigate the influence of physiological conditions on microbicidal effect of the peptides, four different assay media were used: 0.037% BHI, 0.037% BHI supplemented with 85 or 150 mM sodium chloride (NaCl), and 50% heat inactivated simulated wound fluid (h.i. SWF) composed of a 50:50 mixture of 0.1% peptone (Oxoid, Basingstoke, UK) in 150 mM NaCl and fetal bovine serum (FBS; PAA Laboratories GmbH, Pasching, Austria), diluted two times in ultra pure water. The peptides were serially diluted by twofold steps from 200 to 1.56 mg/L in the assay media used, and 100 μL of the peptide solutions were mixed with 5 μL bacterial suspensions in a 96 well plate (Nunc, Roskilde, Denmark) and incubated at 37°C for two hours. An aliquot of 5 μL from each well was aspirated and added as drops onto blood agar plates (Columbia agar; Oxoid, Basingstoke, UK) supplemented with 5% defibrinated horse blood (Swedish National Veterinary Institute (SVA), Uppsala, Sweden), and the plates were incubated overnight at 37°C. All samples were processed as duplicates. The minimal test compound concentration causing ≥99% reduction of bacteria was defined as the MMC99. The concentration of the bacterial suspension used in the assay was confirmed by viable count estimation on blood agar plates (Oxoid).
# (§2) CEN1 HC was further screened for microbicidal activity against a panel of microbial strains using the MMC99 assay, as described above, except using only two different assay media; 0.037% BHI and 50% h.i. SWF. The following microbial strains were tested for sensitivity: S. aureus (ATCC 12600), MRSA (ATCC 33591), Staphylococcus epidermidis (ATCC 12228), Streptococcus pyogenes (ATCC 12344), Propionibacterium acnes (ATCC 6919) Escherichia coli (ATCC 11775), P. aeruginosa (ATCC 15442), Klebsiella pneumoniae (Culture collection, University of Gothenburg (CCUG) 59413, clinical isolate resistant to penicillins, cephalosporins, aztreonam and carbapenems, with the reference strain ATCC 13883), Acinetobacter baumannii (CCUG 58437, clinical isolate resistant to tobramycin, trimsulfa, ciprofloxacin, cefotaxim, ceftazidim, meropenem, pipera/tazobactam, with the reference strain ATCC 19606) and the yeast strain Candida albicans (ATCC 64549). Mupirocin (GlaxoSmithKline) and fusidic acid (LEO Pharma) were used as comparative control antibiotics.
# [1] = synthesis and antimicrobial testing of the different monomers; ref Li et al. [2010]; cited from earlier work
# Source text: Invertebrates are proving to be a rich source of AMPs, possibly because of their more pronounced reliance on innate immune functions in their defence against microbial pathogens compared to vertebrates. Many of the peptides isolated from marine species are structurally unique, display significant biological activities and are therefore expected to be useful drug leads (Sperstad et al. [2011]). In a previous study, we detected broad-spectrum antibacterial activity in coelomocyte (blood cell) extracts of the green sea urchin, S. droebachiensis (Haug et al. [2002]). Subsequently, an AMP named cen ...
# [2] = system: TNF-α secretion from THP-1 cells; assay: Inhibition of TNF-α secretion from LPS-stimulated THP-1 derived macrophages (ELISA); format: cell-based, human; settings: PMA-differentiated THP-1 cells, LPS 0.1 ng/mL, peptide added 30 min after LPS, 6 h, triplicate, IC50 ± SEM, 4-parameter fit (Origin)
# Method: The human monocytic cell line THP-1 (ATCC TIB-202) was cultured in RPMI 1640 medium (PAA Laboratories GmbH) supplemented with 10% FBS (PAA Laboratories GmbH), 1 mM sodium pyruvate (Sigma-Aldrich, St. Louis, MO), and 20 mM 4-(2-hydroxyethyl)-1-piperazineethanesulfonic acid (HEPES; PAA Laboratories GmbH). The cell density was adjusted to 10^6 cells/mL and 100 μL of the cell suspension was added to each well of 96 well plates (Sarstedt, Nümbrecht, Germany). The cells were treated with 10 ng/mL phorbol 12-myristate 13-acetate (PMA; Sigma-Aldrich) to differentiate the monocytes into macrophage-like cells. After 48 h, the cells were stimulated by adding 0.1 ng/mL LPS into the medium specified above, except that 10% FBS was replaced with 5% h.i. FBS. The LPS concentration used was selected based on in vitro titration experiments to give a close to maximum release of cytokines into the cell culture medium over a period of six hours (data not shown). The indicated concentrations of the peptides were added 30 min after addition of LPS. After six hours of incubation, the plates were centrifuged for six minutes at 400 × g and the supernatants were collected and kept frozen at −20°C until analysed for TNF-α and IL-6 production. The cytokine levels were analysed using enzyme-linked immunosorbent assay (ELISA; R&D Systems, Minneapolis, MN).
# [3] = system: P. aeruginosa (ATCC 15442); assay: Minimal microbicidal concentration (MMC99) assay; format: cell-based, Pseudomonas aeruginosa
# Method: as §1, §2
# MRSA (ATCC 33591) = format: in vivo; settings: rat excision wound model (MRSA or P. aeruginosa infected), topical application, experimental period
# Source text: The ability of CEN1 HC and CEN1 HC (Ser) to reduce bacterial counts was estimated in an excision wound model in rat designed based on previously published studies (Gisby and Bryant [2000]; McRipley and Whitney [1976]; Rittenhouse et al. [2006]; Saymen et al. [1972]). Briefly, female Sprague–Dawley rats (200–250 g, Charles River Laboratories, Sulzfeldt, Germany) were housed at the Laboratory of Experimental Biomedicine, Gothenburg, Sweden. They were kept in a 12-h light–dark cycle and were cared for in accordance with regulations for the protection of laboratory animals. All animal experiments were performed after prior approval from the local Ethics Committee for Animal Studies at the Administrative Court of Appeals in Gothenburg, Sweden. The rats were acclimatised in cages for a minimum of five days before surgery, with four rats in each cage. They had free access to water and pellets (Lab For, Lantmännen, Sweden). The rats were anaesthetised during the whole experiment and the anaesthesia was induced by an intra-peritoneal injection of a mixture of fentanyl (272 μg/kg; B. Braun Melsungen AG, Melsungen, Germany) and medetomidine hydrochloride (545 μg/kg; Domitor, Orion Pharma Animal Health AB, Sollentuna, Sweden). The backs of the rats were shaved and swabbed with 70% chlorhexidine alcohol (Fresenius Kabi AB, Uppsala, Sweden). […] Plates containing 30–300 CFU were counted. […]
# [4] = Table 2 screen, medium 0.037% BHI + 85 mM NaCl, 2 h at 37°C, up to 200 mg/L, duplicates, maximum of at least two independent experiments
# [5] = Table 2 screen, medium 0.037% BHI + 150 mM NaCl, 2 h at 37°C, up to 200 mg/L, duplicates, maximum of at least two independent experiments
# [6] = Table 2 screen, medium 50% heat inactivated simulated wound fluid, 2 h at 37°C, up to 200 mg/L, duplicates, maximum of at least two independent experiments
Substance,"S. aureus MMC99, 0.037% BHI + 85 mM NaCl (S. aureus (ATCC 12600); [4])","S. aureus MMC99, 0.037% BHI + 150 mM NaCl (S. aureus (ATCC 12600); [5])","S. aureus MMC99, 0.037% BHI (S. aureus (ATCC 12600); Table 2 screen, medium 0.037% BHI, ≥99% reduction of bacteria, 2 h at 37°C, tested up to 200 mg/L, duplicates, maximum value from at least two independent experiments)","S. aureus MMC99, 50% SWF (S. aureus (ATCC 12600); [6])","S. aureus MMC99, 0.037% BHI with 85 mM or 150 mM NaCl (S. aureus (ATCC 12600); text summary over both NaCl concentrations of Table 2a)",Antimicrobial activity of the synthesised monomers of centrocin 1 [1],"IC50, TNF-α secretion [2]","P. aeruginosa MMC99, 0.037% BHI + 85 mM NaCl [3, 4]","P. aeruginosa MMC99, 0.037% BHI + 150 mM NaCl [3, 5]","P. aeruginosa MMC99, 0.037% BHI ([3]; Table 2 screen, medium 0.037% BHI, 2 h at 37°C, up to 200 mg/L, duplicates, maximum of at least two independent experiments)","P. aeruginosa MMC99, 50% SWF [3, 6]","P. aeruginosa MMC99, 0.037% BHI with 85 mM or 150 mM NaCl ([3]; text summary over both NaCl concentrations of Table 2b, compared to 0.037% BHI only)",Animal death or local reactions in connection to the application of the test article (MRSA (ATCC 33591))
"GW(Br)FKKTFHKVSHAVKSGIHAGQRGCSALGF [CEN1 HC-Br, heavy chain of centrocin 1, 30 residues, brominated tryptophan in position 2]",25 mg/L,50 mg/L,25 mg/L,25.0 to 50.0 mg/L and 50 mg/L,25.0 to 50.0 mg/L,equally active as the original dimeric peptide,~4.0 µg/mL,12.5 mg/L,25 mg/L,25 mg/L,100.0 mg/L and 100 mg/L,no reduction in effect,–
GWFKKTFHKVSHAVKSGIHAGQRGCSALGF [CEN1 HC],–,–,–,–,–,–,–,–,–,–,–,–,No animal death or local reactions
